Test results from patent publication US20160158317A1, “Antimicrobial Peptide Variants and Polynucleotides Encoding Same” (Adenium Biotech A/S, priority 2010, published 2016).
Where a SMILES comes first, the peptide text is derived from it. Bridges are numbered along the chain shown (N, C = ends).

Assay: Determination of the protein binding (90% serum, 30 kDa filter, HPLC)
Type: in vitro ADME
Settings: serum
Protocol: Protein binding assays were performed as follows. The purified peptides were mixed with 90% serum and centrifuged through a 30 kDa filter. The ultra-filtrate and the non filtrated serum samples were quantified by HPLC measurements and the protein binding was subsequently calculated.

Row | SMILES | fraction unbound
1 | CC(C)[C@@H]1NC(=O)CNC(=O)[C@H](CC(N)=O)NC(=O)[C@H](CCCNC(=N)N)NC(=O)[C@H](Cc2ccc(O)cc2)NC(=O)[C@H](Cc2c[nH]cn2)NC(=O)[C@@H]2CSSC[C@H](NC(=O)[C@H](C(C)C)NC(=O)[C@H](CCCNC(=N)N)NC1=O)C(=O)N[C@@H](Cc1ccc(O)cc1)C(=O)N[C@@H](CCCNC(=N)N)C(=O)N[C@@H](CCCNC(=N)N)C(=O)N[C@H](C(=O)N[C@@H](CC(N)=O)C(=O)O)CSSC[C@H](NC(=O)[C@H](Cc1ccccc1)NC(=O)CN)C(=O)N[C@@H](Cc1c[nH]c3ccccc13)C(=O)N[C@@H](Cc1ccc(O)cc1)C(=O)N[C@@H](C(C)C)C(=O)N2 [compound 23] (H-GFCWYVCHYRNGVRVCYRRCN-OH; disulfide 3-20, 7-16 (inferred); N-terminus and C-terminus assumed) | 0.02
2 | CC(C)[C@@H]1NC(=O)CNC(=O)[C@H](CC(N)=O)NC(=O)[C@H](CCCNC(=N)N)NC(=O)[C@H](Cc2ccc(O)cc2)NC(=O)[C@H](CO)NC(=O)[C@@H]2CSSC[C@H](NC(=O)[C@H](C(C)C)NC(=O)[C@H](CCCNC(=N)N)NC1=O)C(=O)N[C@@H](Cc1ccc(O)cc1)C(=O)N[C@@H](CCCNC(=N)N)C(=O)N[C@@H](CCCNC(=N)N)C(=O)N[C@H](C(=O)N[C@@H](CC(N)=O)C(=O)O)CSSC[C@H](NC(=O)[C@H](Cc1ccccc1)NC(=O)CN)C(=O)N[C@@H](Cc1c[nH]c3ccccc13)C(=O)N[C@@H](Cc1ccc(O)cc1)C(=O)N[C@@H](C(C)C)C(=O)N2 [compound 24] (H-GFCWYVCSYRNGVRVCYRRCN-OH; disulfide 3-20, 7-16) | 0.15
3 | CC(C)[C@@H]1NC(=O)CNC(=O)[C@H](CC(N)=O)NC(=O)[C@H](CCCNC(=N)N)NC(=O)[C@H](Cc2ccc(O)cc2)NC(=O)[C@H](Cc2ccc(O)cc2)NC(=O)[C@@H]2CSSC[C@H](NC(=O)[C@H](C(C)C)NC(=O)[C@H](CCCNC(=N)N)NC1=O)C(=O)N[C@@H](Cc1ccc(O)cc1)C(=O)N[C@@H](CCCNC(=N)N)C(=O)N[C@@H](CCCNC(=N)N)C(=O)N[C@H](C(=O)N[C@@H](CC(N)=O)C(=O)O)CSSC[C@H](NC(=O)[C@H](Cc1ccccc1)NC(=O)CN)C(=O)N[C@@H](Cc1c[nH]c3ccccc13)C(=O)N[C@@H](Cc1ccc(O)cc1)C(=O)N[C@@H](C(C)C)C(=O)N2 [compound 25] (H-GFCWYVCYYRNGVRVCYRRCN-OH; disulfide 3-20, 7-16 (inferred); N-terminus and C-terminus assumed) | 0.02
4 | CC(C)[C@@H]1NC(=O)CNC(=O)[C@H](CC(N)=O)NC(=O)[C@H](CCCNC(=N)N)NC(=O)[C@H](CCCNC(=N)N)NC(=O)[C@H](C(C)C)NC(=O)[C@@H]2CSSC[C@H](NC(=O)[C@H](C(C)C)NC(=O)[C@H](CCCNC(=N)N)NC1=O)C(=O)N[C@@H](Cc1ccc(O)cc1)C(=O)N[C@@H](CCCNC(=N)N)C(=O)N[C@@H](CCCNC(=N)N)C(=O)N[C@H](C(=O)N[C@@H](CC(N)=O)C(=O)O)CSSC[C@H](NC(=O)[C@H](Cc1ccccc1)NC(=O)CN)C(=O)N[C@@H](Cc1c[nH]c3ccccc13)C(=O)N[C@@H](Cc1ccc(O)cc1)C(=O)N[C@@H](C(C)C)C(=O)N2 [compound 28] (H-GFCWYVCVRRNGVRVCYRRCN-OH; disulfide 3-20, 7-16 (inferred); N-terminus and C-terminus assumed) | 0.08
5 | CC(C)[C@@H]1NC(=O)[C@H](CCCNC(=N)N)NC(=O)[C@H](C)NC(=O)CNC(=O)[C@H](CC(N)=O)NC(=O)[C@H](CCCNC(=N)N)NC(=O)[C@H](Cc2ccc(O)cc2)NC(=O)[C@H](C(C)C)NC(=O)[C@@H]2CSSC[C@H](NC1=O)C(=O)N[C@@H](Cc1ccc(O)cc1)C(=O)N[C@@H](CCCNC(=N)N)C(=O)N[C@@H](CCCNC(=N)N)C(=O)N[C@H](C(=O)N[C@@H](CC(N)=O)C(=O)O)CSSC[C@H](NC(=O)[C@H](Cc1ccccc1)NC(=O)CN)C(=O)N[C@@H](Cc1c[nH]c3ccccc13)C(=O)N[C@@H](Cc1ccc(O)cc1)C(=O)N[C@@H](C(C)C)C(=O)N2 [compound 29] (H-GFCWYVCVYRNGARVCYRRCN-OH; disulfide 3-20, 7-16 (inferred); N-terminus and C-terminus assumed) | 0.01
6 | CC(C)[C@@H]1NC(=O)[C@H](CCCNC(=N)N)NC(=O)CNC(=O)CNC(=O)[C@H](CC(N)=O)NC(=O)[C@H](CCCNC(=N)N)NC(=O)[C@H](Cc2ccc(O)cc2)NC(=O)[C@H](C(C)C)NC(=O)[C@@H]2CSSC[C@H](NC1=O)C(=O)N[C@@H](Cc1ccc(O)cc1)C(=O)N[C@@H](CCCNC(=N)N)C(=O)N[C@@H](CCCNC(=N)N)C(=O)N[C@H](C(=O)N[C@@H](CC(N)=O)C(=O)O)CSSC[C@H](NC(=O)[C@H](Cc1ccccc1)NC(=O)CN)C(=O)N[C@@H](Cc1c[nH]c3ccccc13)C(=O)N[C@@H](Cc1ccc(O)cc1)C(=O)N[C@@H](C(C)C)C(=O)N2 [compound 30] (H-GFCWYVCVYRNGGRVCYRRCN-OH; disulfide 3-20, 7-16 (inferred); N-terminus and C-terminus assumed) | 0.01
7 | CC(C)[C@@H]1NC(=O)[C@@H]2CSSC[C@H](NC(=O)[C@H](C(C)C)NC(=O)[C@H](CCCNC(=N)N)NC(=O)[C@@H]3CCCN3C(=O)CNC(=O)[C@H](CC(N)=O)NC(=O)[C@H](CCCNC(=N)N)NC(=O)[C@H](Cc3ccc(O)cc3)NC1=O)C(=O)N[C@@H](Cc1ccc(O)cc1)C(=O)N[C@@H](CCCNC(=N)N)C(=O)N[C@@H](CCCNC(=N)N)C(=O)N[C@H](C(=O)N[C@@H](CC(N)=O)C(=O)O)CSSC[C@H](NC(=O)[C@H](Cc1ccccc1)NC(=O)CN)C(=O)N[C@@H](Cc1c[nH]c3ccccc13)C(=O)N[C@@H](Cc1ccc(O)cc1)C(=O)N[C@@H](C(C)C)C(=O)N2 [compound 33] (H-GFCWYVCVYRNGPRVCYRRCN-OH; disulfide 3-20, 7-16 (inferred); N-terminus and C-terminus assumed) | 0.01
8 | CC(C)[C@@H]1NC(=O)[C@H](CCCNC(=N)N)NC(=O)[C@H](CO)NC(=O)CNC(=O)[C@H](CC(N)=O)NC(=O)[C@H](CCCNC(=N)N)NC(=O)[C@H](Cc2ccc(O)cc2)NC(=O)[C@H](C(C)C)NC(=O)[C@@H]2CSSC[C@H](NC1=O)C(=O)N[C@@H](Cc1ccc(O)cc1)C(=O)N[C@@H](CCCNC(=N)N)C(=O)N[C@@H](CCCNC(=N)N)C(=O)N[C@H](C(=O)N[C@@H](CC(N)=O)C(=O)O)CSSC[C@H](NC(=O)[C@H](Cc1ccccc1)NC(=O)CN)C(=O)N[C@@H](Cc1c[nH]c3ccccc13)C(=O)N[C@@H](Cc1ccc(O)cc1)C(=O)N[C@@H](C(C)C)C(=O)N2 [compound 36] (H-GFCWYVCVYRNGSRVCYRRCN-OH; disulfide 3-20, 7-16 (inferred); N-terminus and C-terminus assumed) | 0.4
9 | CC(C)[C@@H]1NC(=O)CNC(=O)[C@H](CC(N)=O)NC(=O)[C@H](CCCNC(=N)N)NC(=O)[C@H](Cc2ccc(O)cc2)NC(=O)[C@H](C(C)C)NC(=O)[C@@H]2CSSC[C@H](NC(=O)CNC(=O)[C@H](CCCNC(=N)N)NC1=O)C(=O)N[C@@H](Cc1ccc(O)cc1)C(=O)N[C@@H](CCCNC(=N)N)C(=O)N[C@@H](CCCNC(=N)N)C(=O)N[C@H](C(=O)N[C@@H](CC(N)=O)C(=O)O)CSSC[C@H](NC(=O)[C@H](Cc1ccccc1)NC(=O)CN)C(=O)N[C@@H](Cc1c[nH]c3ccccc13)C(=O)N[C@@H](Cc1ccc(O)cc1)C(=O)N[C@@H](C(C)C)C(=O)N2 [compound 38] (H-GFCWYVCVYRNGVRGCYRRCN-OH; disulfide 3-20, 7-16 (inferred); N-terminus and C-terminus assumed) | 0.07
10 | CC(C)[C@@H]1NC(=O)CNC(=O)[C@H](CC(N)=O)NC(=O)[C@H](CCCNC(=N)N)NC(=O)[C@H](Cc2ccc(O)cc2)NC(=O)[C@H](C(C)C)NC(=O)[C@@H]2CSSC[C@H](NC(=O)[C@H](Cc3c[nH]cn3)NC(=O)[C@H](CCCNC(=N)N)NC1=O)C(=O)N[C@@H](Cc1ccc(O)cc1)C(=O)N[C@@H](CCCNC(=N)N)C(=O)N[C@@H](CCCNC(=N)N)C(=O)N[C@H](C(=O)N[C@@H](CC(N)=O)C(=O)O)CSSC[C@H](NC(=O)[C@H](Cc1ccccc1)NC(=O)CN)C(=O)N[C@@H](Cc1c[nH]c3ccccc13)C(=O)N[C@@H](Cc1ccc(O)cc1)C(=O)N[C@@H](C(C)C)C(=O)N2 [compound 39] (H-GFCWYVCVYRNGVRHCYRRCN-OH; disulfide 3-20, 7-16 (inferred); N-terminus and C-terminus assumed) | 0.02
11 | CC(C)[C@@H]1NC(=O)CNC(=O)[C@H](CC(N)=O)NC(=O)[C@H](CCCNC(=N)N)NC(=O)[C@H](Cc2ccc(O)cc2)NC(=O)[C@H](C(C)C)NC(=O)[C@@H]2CSSC[C@H](NC(=O)[C@H](CC(N)=O)NC(=O)[C@H](CCCNC(=N)N)NC1=O)C(=O)N[C@@H](Cc1ccc(O)cc1)C(=O)N[C@@H](CCCNC(=N)N)C(=O)N[C@@H](CCCNC(=N)N)C(=O)N[C@H](C(=O)N[C@@H](CC(N)=O)C(=O)O)CSSC[C@H](NC(=O)[C@H](Cc1ccccc1)NC(=O)CN)C(=O)N[C@@H](Cc1c[nH]c3ccccc13)C(=O)N[C@@H](Cc1ccc(O)cc1)C(=O)N[C@@H](C(C)C)C(=O)N2 [compound 41] (H-GFCWYVCVYRNGVRNCYRRCN-OH; disulfide 3-20, 7-16 (inferred); N-terminus and C-terminus assumed) | 0.03
12 | CC(C)[C@@H]1NC(=O)CNC(=O)[C@H](CC(N)=O)NC(=O)[C@H](CCCNC(=N)N)NC(=O)[C@H](Cc2ccc(O)cc2)NC(=O)[C@H](C(C)C)NC(=O)[C@@H]2CSSC[C@H](NC(=O)[C@H](CCC(N)=O)NC(=O)[C@H](CCCNC(=N)N)NC1=O)C(=O)N[C@@H](Cc1ccc(O)cc1)C(=O)N[C@@H](CCCNC(=N)N)C(=O)N[C@@H](CCCNC(=N)N)C(=O)N[C@H](C(=O)N[C@@H](CC(N)=O)C(=O)O)CSSC[C@H](NC(=O)[C@H](Cc1ccccc1)NC(=O)CN)C(=O)N[C@@H](Cc1c[nH]c3ccccc13)C(=O)N[C@@H](Cc1ccc(O)cc1)C(=O)N[C@@H](C(C)C)C(=O)N2 [compound 42] (H-GFCWYVCVYRNGVRQCYRRCN-OH; disulfide 3-20, 7-16 (inferred); N-terminus and C-terminus assumed) | 0.04
